Earlier results in patent US20250108152A1, “DRUG ELUTING POLYMER COMPOSED OF BIODEGRADABLE POLYMERS APPLIED TO SURFACE OF MEDICAL DEVICE” (The General Hospital Corporation, priority 2016, published 2025).

Compound	fraction of intravenous dose that penetrates bone
Cc1nnc(SCC2=C(C(=O)O)N3C(=O)[C@@H](NC(=O)Cn4cnnn4)[C@H]3SC2)s1 [cefazolin]	7-15%
CO/N=C(\C(=O)N[C@@H]1C(=O)N2C(C(=O)O)=C(CSc3nc(=O)c(=O)[nH]n3C)CS[C@H]12)c1csc(N)n1 [ceftriaxone]	5-19%
CN[C@H](CC(C)C)C(=O)N[C@H]1C(=O)N[C@@H](CC(N)=O)C(=O)N[C@H]2C(=O)N[C@H]3C(=O)N[C@H](C(=O)N[C@H](C(=O)O)c4cc(O)cc(O)c4-c4cc3ccc4O)[C@H](O)c3ccc(c(Cl)c3)Oc3cc2cc(c3O[C@@H]2O[C@H](CO)[C@@H](O)[C@H](O)[C@H]2O[C@H]2C[C@](C)(N)[C@H](O)[C@H](C)O2)Oc2ccc(cc2Cl)[C@H]1O [vancomycin]	5-20%
